Measurements reported in patent publication US6641707B2, “Biodegradation-resistant electrodepositable coating compositions and methods related thereto” (PPG Industries Ohio, Inc., priority 2001, dated 2003).

System: aerobic heterotrophs
Experiment: Bacteria Resistance Testing: acids added to infected electrodeposition permeate, spread plate count on R2A agar
Assay type: cell-based
Conditions: reactors rolled at 32° C.; for Bacteria Count 3 day: plated at 3 days; for Bacteria Count 7 day: plated at 7 days; for Bacteria Count 10 day: plated at 10 days
Method: Infected rinsewater from an online electrodeposition bath tank (containing E6100, commercially available from PPG Industries, Inc.) having a bacterial count of 1.5×10^6 cfu/mL was used to inoculate filter-sterilized ultrafiltrate (“permeate”) collected from the same line. The infected rinsewater was diluted by a factor of 10^3 into the sterile permeate. The infected permeate was added to reactors. The various acids listed below in the following Table 2 were prepared as 1% solutions in water and tested at 1000, 500, and 200 ppm of active material. Reactors were rolled for 10 days at 32° C. and were plated for bacteria counts at 3, 7, and 10 days.
The enumeration of aerobic heterotrophs in the reactors utilized the standard spread plate method as described in Standard Methods for the Examination of Water and Wastewater, 1992, section 9215C. Bacterial counts were examined using R2A agar plates. 100 μL of a suitable dilution of sample was pipetted onto the surface of the media and spread with an alcohol and flame sterilized glass rod. The plates were inverted and incubated for 3 days at 32° C. with periodic examination. Colony forming units were counted on a New Brunswick Bactronic Colony Counter. A target of 30 to 300 cfu per plate was considered a valid count.

[1] = acid at 200 ppm of active material
[2] = acid at 500 ppm of active material
[3] = acid at 1000 ppm of active material

Compound | Bacteria Count 3 day [1] | Bacteria Count 7 day [1] | Bacteria Count 10 day [1] | Bacteria Count 3 day [2] | Bacteria Count 7 day [2] | Bacteria Count 10 day [2] | Bacteria Count 3 day [3] | Bacteria Count 7 day [3] | Bacteria Count 10 day [3]
COCC(=O)O [Methoxyacetic, methoxyacetic acid] | <4.0 × 10^1 | <4.0 × 10^2 | <4.0 × 10^1 | <4.0 × 10^1 | <4.0 × 10^1 | <4.0 × 10^1 | <4.0 × 10^1 | <4.0 × 10^1 | <4.0 × 10^1
CC(O)C(=O)O (stereo not drawn) [Lactic, lactic acid, reference compound] |  |  |  | 7.2 × 10^7 | 7.8 × 10^7 | 2.4 × 10^7 | 2.4 × 10^7 | 5.0 × 10^7 | 2.3 × 10^7
O=C(O)COc1ccccc1 [Phenoxyacetic, phenoxyacetic acid] | 4.0 × 10^6 | 8.0 × 10^6 | 3.2 × 10^7 | <4.0 × 10^1 | <4.0 × 10^1 | <4.0 × 10^1 | <4.0 × 10^1 | <4.0 × 10^1 | <4.0 × 10^1
CCCCOCC(=O)O [Butoxyacetic, butoxyacetic acid] | 3.0 × 10^6 | 1.2 × 10^7 | 5.6 × 10^7 | <4.0 × 10^1 | <4.0 × 10^1 | <4.0 × 10^1 | <4.0 × 10^1 | <4.0 × 10^1 | <4.0 × 10^1
CCOCC(=O)O [Ethoxyacetic, ethoxyacetic acid] | 1.3 × 10^6 | 3.2 × 10^7 | 4.8 × 10^7 | <4.0 × 10^1 | <4.0 × 10^1 | <4.0 × 10^1 | <4.0 × 10^1 | <4.0 × 10^1 | <4.0 × 10^1
COCCOCCOCC(=O)O [2-[2-(2-methoxyethoxy)-ethox]acetic, 2-[2-(methoxyethoxy)ethoxy]acetic acid] | 3.2 × 10^6 | 4.0 × 10^7 | 5.2 × 10^7 | <4.0 × 10^1 | >1.2 × 10^4 | 6.4 × 10^6 | <4.0 × 10^1 | <4.0 × 10^1 | <4.0 × 10^1
COCCOCC(=O)O [2-(2-methoxyethoxy)acetic, 2-(2-methoxyethoxy)acetic acid] | 8.0 × 10^6 | 2.8 × 10^7 | 2.3 × 10^7 | <4.0 × 10^1 | >1.2 × 10^4 | 4.0 × 10^6 | <4.0 × 10^1 | <4.0 × 10^1 | <4.0 × 10^1
